Laboratory results taken from patent publication US20080167379A1, “Ointment” (TAISHO PHARMACEUTICAL CO., LTD., priority 2005, published 2008).

Key:
[1] = system: BALB/c mice having the skin barrier destroyed by chafing; test: Transdermal water evaporation (TEWL) after ointment application; assay type: in vivo; conditions: ointment applied to BALB/c mice with skin barrier destroyed by chafing, compared with base only; FIG. 3
Procedure: [FIG. 3] A graph showing the amount of transdermal evaporation of water (TEWL, average value ±SE, n=8) when a present ointment was applied to BALB/c mice having the skin barrier destroyed by chafing.
(§1) According to the methods described in the literature (Japanese Laid-open patent publication Nos. 2005-247843 and 2005-247842), measurements of the spontaneous action of scratching and the amount of transdermal water evaporation were performed with regard to the compound represented by formula (II). A test was performed, using ointments prepared in the same manner as in Example 4 to have the compound represented by formula (II) at concentrations of 0.0001% and 0.001%.

NC/Nga mice = test: Spontaneous scratching action after ointment application; assay type: in vivo; conditions: ointment applied to NC/Nga mice; FIG. 2
Procedure: [FIG. 2] A graph showing the number of scratching action (average value ±SE, n=8) when a present ointment was applied to NC/Nga mice.
as §1

[2] = Storage stability of ointment at 40° C. and 75% RH: content against initial content; assay type: physicochemical; conditions: storage at 40° C. and 75% RH 1 month or 25° C. 3 months, Table 5
Procedure: To confirm the storage stability of the compound represented by formula (II) in the preparation, the content (%) of the compound after a storage at 40° C. and 75% RH against the content at the time of initiation, was determined.
To confirm the storage stability of the compound represented by formula (II) in the preparation, the contents (%) of the compound after storages at 40° C. and 75% RH, and at 50° C. against the content at the time of initiation, was determined.
To confirm the storage stability of the compound represented by formula (II) in the preparation, the contents (%) of the compound after a storage at 40° C. and 75% RH, or at 25° C. against the content at the time of initiation, was determined.

For `O=C(O)CSCCCC[C@@H]1[C@@H](C#C[C@@H](O)C2CCCCC2)[C@H](O)C[C@H]1Cl` [compound represented by formula (II)], the “amount of transdermal evaporation of water (TEWL)” value [1] was “a decrease in the amount of transdermal water evaporation”, the “number of scratching action” value (NC/Nga mice) was “a decrease in the scratching action” and the “storage stability (in words)” value [2] was “stable in the drugs”.
